The results in this text go back to patent US7807676B2, “Diketo-Piperazine and Piperidine derivatives as antiviral agents” (priority 2006, dated 2010).

pEC50: −log10 of the molar value. Where a name gives a salt, the structure may show the parent alone.

This test has as its system HIV-1 single-round infectious reporter virus. The experiment in a line: Single-round infectious HIV-1 luciferase reporter virus infection of HeLa CD4 cells (antiviral EC50). It is filed as cell-based. The conditions noted are these: Human immunodeficiency virus 1, HeLa, read-out: EC50 Group from Table 3. The procedure, abridged:
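Compound (≤10 μM final, 10 concentrations) was added to HeLa CD4 cells together with luciferase-reporter HIV-1 pseudovirus (nef replaced by luciferase, envelope supplied in trans) at MOI ~0.01. Cells were lysed 72 h post-infection at 37 °C for luminescence; percent inhibition versus untreated infection, fitted four-parameter logistic for EC50.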

Take `COc1cnc(-n2cc(C)nn2)c2[nH]cc(C(=O)C(=O)N3CCN(c4nnnn4-c4ccccn4)CC3)c12` [G-31]: the pEC50 was over 6.30.

`COc1cnc(-n2cnc(C)n2)c2[nH]cc(C(=O)C(=O)N3CCN(c4nnnn4-c4cccc(F)n4)CC3)c12` [E-12a]: the pEC50 is over 6.30. Next, `COc1cnc(-c2cnccc2C)c2[nH]cc(C(=O)C(=O)N3CCN(c4nnnn4-c4ccccn4)CC3)c12` [H-7]: over 6.30; `COc1nc(N2CCN(C(=O)C(=O)c3c[nH]c4c(-n5ccnn5)ncc(F)c34)CC2)n(-c2ccccc2)n1` [G-29a]: over 6.30. For `O=C(C(=O)N1CCN(c2ccnn2-c2ccccn2)CC1)c1c[nH]c2c(-n3ccnn3)ncc(F)c12` [E-14, 1-(4-fluoro-7-(1H-1,2,3-triazol-1-yl)-1H-pyrrolo[2,3-c]pyridinyl-3-yl)-2-(4-(1-(pyridin-2-yl)-1H-pyrazol-5-yl)piperazin-1-yl)ethane-1,2-dione], the pEC50 is over 6.30. Take `COc1cnc(-n2cnc(C)n2)c2[nH]cc(C(=O)C(=O)N3CCN(c4cnnn4-c4ccccc4)CC3)c12` [G-30b]: the pEC50 was over 6.30. Next, `O=C(C(=O)N1C[C@@H]2CC[C@H]1CN2c1nnnn1-c1ccccc1)c1c[nH]c2c(-n3ccnn3)ncc(F)c12` [A-72]: over 6.30; `CCOC(=O)CCCC(=O)c1cccnc1N1CCN(C(=O)C(=O)c2c[nH]c3c(-n4ccnn4)ncc(F)c23)CC1` [D-41]: under 6.30. For `C[C@@H]1CN(c2nn(C)c(=O)cc2-c2ccccc2)CCN1C(=O)C(=O)c1c[nH]c2c(-n3ccnn3)ncc(F)c12` [D-36], the pEC50 was under 6.30.

As for `COc1cnc(-c2ccn(CC(=O)O)n2)c2c1c(C(=O)C(=O)N1CCN(c3nnnn3-c3ccccn3)CC1)cn2CC(=O)O` [B-74], the pEC50 is under 6.30. Next, `CCOc1nccnc1N1CCN(C(=O)C(=O)c2c[nH]c3c(-n4cnc(C)n4)ncc(OC)c23)CC1` [D-17]: over 6.30; `O=C(C(=O)N1CCN(c2nnnn2-c2ccccc2)CC1)c1c[nH]c2c(-n3ccnn3)ncc(F)c12` [A-5]: over 6.30; `O=C(C(=O)N1CCN(C2=NCCN2c2ccccc2)CC1)c1c[nH]c2c(-n3ccnn3)ncc(F)c12` [G-12a]: over 6.30. In the case of `O=C(C(=O)N1CCN(c2nnnn2-c2ccccc2)CC1)c1c[nH]c2c(-c3cc(C(=O)N4CC[C@@H](O)C4)[nH]n3)ncc(F)c12` [F-3], the negative logarithm of the EC50 (pEC50) was over 6.30. The same measure for `COc1ncc(-c2ncc(OC)c3c(C(=O)C(=O)N4CCN(c5nnnn5-c5ccccn5)CC4)c[nH]c23)s1` [B-88]: over 6.30; for `CCc1ncn(-c2ncc(OC)c3c(C(=O)C(=O)N4CCN(c5ncccc5C(=O)c5nccs5)CC4)c[nH]c23)n1` [A-68]: over 6.30. For the molecule `CC(C)Oc1nccnc1N1CCN(C(=O)C(=O)c2c[nH]c3c(-n4ccnn4)ncc(F)c23)CC1` [D-35], the negative-log EC50 (pEC50) was over 6.30. Consider `COc1cnc(-c2cc(C(=O)NCCO)[nH]n2)c2[nH]cc(C(=O)C(=O)N3CCN(c4nnnn4-c4ccccc4)CC3)c12` [B-8, N-(2-hydroxyethyl)-3-(4-methoxy-3-(2-oxo-2-(4-(1-phenyl-1H-tetrazol-5-yl)piperazin-1-yl)acetyl)-1H-pyrrolo[2,3-c]pyridin-7-yl)-1H-pyrazole-5-carboxamide.TFA], for which the pEC50 was over 6.30.

`COc1cnc(-n2cc(Cl)cn2)c2[nH]cc(C(=O)C(=O)N3CCN(c4nnnn4-c4ccccn4)CC3)c12` [B-79]: the pEC50 is over 6.30. As for `CN(CCO)C(=O)c1cc(-c2ncc(F)c3c(C(=O)C(=O)N4CCN(c5nnnn5-c5ccccc5)CC4)c[nH]c23)n[nH]1` [B-36], the pEC50 was over 6.30. Next, `O=C(C(=O)N1CCN(c2nnnn2-c2ccccc2)CC1)c1c[nH]c2c(-c3cc(C(=O)N4CCN(CCN5CCOCC5)CC4)[nH]n3)ncc(F)c12` [F-7]: over 6.30; `COc1cnc(-c2cc(C(=O)NCCN3CCOCC3)[nH]n2)c2[nH]cc(C(=O)C(=O)N3CCN(c4nnnn4-c4ccccc4)CC3)c12` [B-13, 3-(4-methoxy-3-(2-oxo-2-(4-(1-phenyl-1H-tetrazol-5-yl)piperazin-1-yl)acetyl)-1H-pyrrolo[2,3-c]pyridin-7-yl)-N-(2-morpholinoethyl)-1H-pyrazole-5-carboxamide.TFA]: over 6.30; `CC(=O)c1ncc(F)c2c(C(=O)C(=O)N3CCN(c4nnnn4-c4ccccc4)CC3)c[nH]c12` [B-47]: over 6.30. On to `N#Cc1cccnc1N1CCN(C(=O)C(=O)c2c[nH]c3c(-n4ccnn4)ncc(F)c23)CC1` [D-4], for which the pEC50 is over 6.30. Next, `COc1cnc(-c2cc(CNCCc3ccncc3)[nH]n2)c2[nH]cc(C(=O)C(=O)N3CCN(c4nnnn4-c4ccccc4)CC3)c12` [B-27, 1-(4-methoxy-7-(5-((2-(pyridin-4-yl)ethylamino)methyl)-1H-pyrazol-3-yl)-1H-pyrrolo[2,3-c]pyridin-3-yl)-2-(4-(1-phenyl-1H-tetrazol-5-yl)piperazin-1-yl)ethane-1,2-dione TFA]: over 6.30. The same measure for `O=C(C(=O)N1CCN(c2nnnn2C2CCCCC2)CC1)c1c[nH]c2c(-n3ccnn3)ncc(F)c12` [E-8]: over 6.30.

With `CC(=O)NCCNC(=O)c1cc(-c2ncc(F)c3c(C(=O)C(=O)N4CCN(c5nnnn5-c5ccccc5)CC4)c[nH]c23)n[nH]1` [F-14], the pEC50 is over 6.30. The same measure for `O=C(C(=O)N1CCN(c2nnnn2-c2ccccc2)CC1)c1c[nH]c2c(-c3cc(C(=O)N4CCN(C(=O)C5CCCO5)CC4)[nH]n3)ncc(F)c12` (stereo not shown) [F-4]: over 6.30; for `COc1cnc(-n2cnc(C)n2)c2[nH]cc(C(=O)C(=O)N3CCN(c4nc(C)nc5scc(-c6ccccc6)c45)C[C@H]3C)c12` [D-10]: over 6.30; for `COc1cnc(-c2cncnc2)c2[nH]cc(C(=O)C(=O)N3CCN(c4nnnn4-c4ccccc4)CC3)c12` [B-63]: over 6.30. As for `O=C(C(=O)N1CCC(c2c(-c3ccccc3)[nH]c3ccccc23)CC1)c1c[nH]c2c(-n3ccnn3)ncc(F)c12` [A-36], the pEC50 was under 6.30. Consider `O=C(C(=O)N1CCN(c2ncccc2I)CC1)c1c[nH]c2c(-n3ccnn3)ncc(F)c12` [D-5], for which the pEC50 is over 6.30.

As for `CNC(=O)Cn1ccc(-c2ncc(OC)c3c(C(=O)C(=O)N4CCN(c5nnnn5-c5ccccn5)CC4)c[nH]c23)n1` [B-77], the negative-log EC50 (pEC50) is over 6.30. For the molecule `COc1cnc(-n2cnc(C)n2)c2[nH]cc(C(=O)C(=O)N3CCN(c4cn(Cc5ccccn5)nc4-c4ccccc4)CC3)c12` [G-7a], the pEC50 is over 6.30.

On to `O=C(C(=O)N1CCN(c2nccc(-c3ccccc3)n2)CC1)c1c[nH]c2c(-n3ccnn3)ncc(F)c12` [A-7], for which the pEC50 is over 6.30.

On to `O=C(C(=O)N1CCN(c2nnnn2-c2ccccc2)CC1)c1c[nH]c2c(-c3cc(C(=O)N4CCCC(O)C4)[nH]n3)ncc(F)c12` (stereo not shown) [F-11], for which the pEC50 was over 6.30. Take `Nc1ccn(-c2ncc(F)c3c(C(=O)C(=O)N4CCN(c5nnnn5-c5ccccc5)CC4)c[nH]c23)n1` [B-4, 1-(7-(3-amino-1H-pyrazol-1-yl)-4-fluoro-1H-pyrrolo[2,3-c]pyridin-3-yl)-2-(4-(1-phenyl-1H-tetrazol-5-yl)piperazin-1-yl)ethane-1,2-dione]: the pEC50 was over 6.30.

In the case of `COc1cnc(-c2csc(C3OCCO3)n2)c2[nH]cc(C(=O)C(=O)N3CCN(c4nnnn4-c4ccccc4)CC3)c12` [B-58], the pEC50 was over 6.30. Consider `COc1ncc(OC)c2c(C(=O)C(=O)N3CCN(c4nnnn4-c4ccccc4)CC3)c[nH]c12` [A-12], for which the pEC50 is over 6.30. The same measure for `O=C(C(=O)N1CCN(c2ccnn2-c2ccccc2)CC1)c1c[nH]c2c(-n3ccnn3)ncc(F)c12` [G-9b]: over 6.30; for `Cc1cc(N2CCN(C(=O)C(=O)c3c[nH]c4c(-n5ccnn5)ncc(F)c34)CC2)n(-c2ccccc2)n1` [A-48]: over 6.30; for `O=C(C(=O)N1CCN(c2nn[nH]c2-c2ccccn2)CC1)c1c[nH]c2c(-n3ccnn3)ncc(F)c12` [G-24a]: over 6.30. On to `O=C(C(=O)N1CCN(c2nonc2-c2ccccc2)CC1)c1c[nH]c2c(-n3ccnn3)ncc(F)c12` [G-1b], for which the negative logarithm of the EC50 (pEC50) is over 6.30. As for `COc1cnc(-n2cnc(C)n2)c2[nH]cc(C(=O)C(=O)N3CCN(c4nn(C)c(=O)cc4-c4ccccc4)C[C@H]3C)c12` [D-50], the pEC50 was under 6.30. The same measure for `COc1cnc(-n2cnc(C)n2)c2[nH]cc(C(=O)C(=O)N3CCN(c4nncn4-c4ccccc4)CC3)c12` [A-44]: over 6.30; for `COc1cnc(-n2cnc(C)n2)c2[nH]cc(C(=O)C(=O)N3CCN(c4nc(N(C)C)nn4-c4ccccc4)CC3)c12` [G-4b]: over 6.30. With `CCOC(=O)c1cccnc1N1CCN(C(=O)C(=O)c2c[nH]c3c(-n4cnc(C)n4)ncc(OC)c23)CC1` [D-8], the negative logarithm of the EC50 (pEC50) is over 6.30. Next, `C[C@@H]1CN(c2nnnn2-c2ccccc2)CCN1C(=O)C(=O)c1c[nH]c2c(-n3ccnn3)ncc(F)c12` [A-14]: over 6.30.

In the case of `O=C(C(=O)N1CCN(C2=NS(=O)(=O)N=C2c2ccccc2)CC1)c1c[nH]c2c(-n3ccnn3)ncc(F)c12` [A-55], the pEC50 was over 6.30.

Regarding `COc1cnc(-n2cnc(C)n2)c2[nH]cc(C(=O)C(=O)N3CCN(c4nnnn4-c4ccccc4)[C@H](C)C3)c12` [A-46], the pEC50 is over 6.30.

With `CN(C)CCCNC(=O)c1cc(-c2ncc(F)c3c(C(=O)C(=O)N4CCN(c5c[nH]nc5-c5ccccc5)CC4)c[nH]c23)n[nH]1` [B-53], the pEC50 is over 6.30.

On to `C[C@@H]1CN(c2ncnc3cc(-c4ccccc4)sc23)CCN1C(=O)C(=O)c1c[nH]c2c(-n3ccnn3)ncc(F)c12` [D-27], for which the negative logarithm of the EC50 (pEC50) was over 6.30. The same measure for `COc1cnc(-n2cnc(C)n2)c2[nH]cc(C(=O)C(=O)N3CCN(c4nnnn4-c4cccc(N)n4)CC3)c12` [E-12b]: over 6.30; for `COc1cnc(-n2cnc(NC(=O)C(C)(C)C)n2)c2[nH]cc(C(=O)C(=O)N3CCN(c4nnnn4-c4ccccn4)CC3)c12` [B-80]: over 6.30; for `CN(C)c1nc(N2CCN(C(=O)C(=O)c3c[nH]c4c(-n5ccnn5)ncc(F)c34)CC2)n(-c2ccccc2)n1` [G-4a]: over 6.30.

A word on the pEC50: it is −log10 of the EC50, conventionally taken in molar units.
